“Also recorded” adds a separate entry of the source. Peptide text beside a SMILES is read from it. * marks the point of attachment. Cbz = O=C(OCc1ccccc1)*
Legend:
[1] = test system: human brain endothelial cells; test: viability of human brain endothelial cells (LDH activity in culture medium); format: cell-based; details: 24 hours; for cellular toxicity / viability of human brain endothelial cells versus control: doses employed; for LDH activity in the culture medium, ANOVA main effect: various doses
Description: (§1) Primary cultures of human brain endothelial cells were plated at a density of 10^4 cells/[…] of EBM 4% in 96 wells culture plates and treated with various doses of γ-secretase and β-secretase inhibitors as indicated in the figure legends. Following 24 hours in culture, the EBM covering the cells was removed and assayed for Lacticodehydrogenase (LDH) activity using the cytotoxicity detection kit (Roche Diagnostic Corporation, Ind.). Cells were covered with […] of EBM 4% and cellular proliferation measured using the Quick cell proliferation assay kit (Biovision Research Products, Calif.).

[2] = test system: human glioblastoma (U-87 MG) xenografts; test: human glioblastoma U-87 MG xenografts in nude mice; format: in vivo; details: Z-VLL-CHO 5 mg/Kg; for vascularization (vascular index) of U-87 MG tumors versus vehicle: DAPT 10 mg/Kg intraperitoneally, CD31/PECAM-1 immunostaining; for growth (tumor volume) of U-87 MG xenografts versus vehicle: intraperitoneally everyday for 9 days, DAPT 10 mg/Kg
Description: FIG. 8a: Anti-tumoral effect of the γ-secretase inhibitor DAPT and of the β-secretase inhibitor Z-VLL-CHO on human glioblastoma (U-87 MG) xenografts growth rates. U-87 MG cells (6×10^6) were injected subcutaneously into both flanks of 8-10 weeks-old nude mice. Mice were injected intraperitoneally with either the vehicle, 5 mg/Kg of body weight of the β-secretase inhibitor Z-VLL-CHO or 10 mg/Kg of body weight of the γ-secretase inhibitor DAPT, starting when tumors had reached a mean tumor volume of approximately 140 mm^3 (day 8 post implantation). Injections were given everyday for 9 days. […] FIG. 8b: Representative pictures of sections of glioblastoma tumors immunostained with CD31 antibodies. FIG. 8c: Histogram depicting the estimation of glioblastoma tumor vascularization.
The human glioblastoma U-87 MG and human lung adenocarcinoma A-549 cell lines were obtained from American Tissue Culture Type Collection (Manassas, Va.) and were grown in DMEM containing 1×penicilline-streptomycine-fungizone and 10% fetal bovine serum at 37° C. in a humidified atmosphere of 5% CO2. Tumor cells (6×106) in 100 μl of PBS were inoculated subcutaneously into both flanks of 8-10-week-old female nude mice (Harland). Tumor volume (in mm^3) was determined using the formula (length×width^2)/2, where length was the longest axis and width the measurement at right angles to the length (Clarke et al. 2000). When the tumor volumes reached approximately 150 mm^3, animals were treated intraperitoneally everyday with 100 μl of 50% DMSO/H2O (vehicle group), 5 mg/Kg of body weight of Z-VLL-CHO (β-secretase inhibitor), 5 mg/Kg of JLK-6 (γ-secretase inhibitor) or with 10 mg/Kg of body weight of DAPT. Data were expressed as mean tumor volume±S.E for each treatment group.
At the completion of the study, animals were humanely euthanized and tumors were harvested and fixed in paraformaldehyde 4% overnight at 4° C. After paraffin embedding in an automated tissue processing Sakura Tissue-Tek (E150) (Torrence, Calif.), samples were cut into 5 μm sections, deparafinized, and rehydrated through a graded series of alcohol. Sections were treated with 0.02 mg/ml Proteinase K (Gentra Systems, MN) for 15 minutes at 37° C. to allow for proper antigen retrieval, washed several times in PBS and incubated for 15 minutes in a 0.3% solution of hydrogen peroxide. […] Quantification of tumor vascularization was performed using the stereological dissector method. […] Microvessels were counted in the dissector frame by an experimenter unaware of the different treatment conditions. For each tumor an average vessel count per area of dissector frame was determined. A vascular index was calculated by expressing the vessel count as a percentage of the vessel count in the vehicle treatment condition.

[3] = test system: U-87 MG brain tumor cells; test: proliferation of U-87 MG brain tumor cells; format: cell-based, human
[4] = test system: explants of rat aortae; test: rat aortic ring model of angiogenesis (microvessel outgrowths); format: cell-based, Sprague Dawley rats; details: for sprouting of microvessel outgrowths, overall / dose dependence: day 4, 5 and 6
Description: Twenty four well tissue culture grade plates (Nalgene International, NY) were covered with […] of Matrigel (Becton-Dickinson, Bedford, Mass.) and allowed to gel for 30 min at 37° C., 5% CO2. Briefly, thoracic aortae were excised from 9 month-old Sprague Dawley rats. After removing the fibroadipose tissue, arteries were sectioned into 1 mm long cross sections, rinsed 5 times with EBM (Clonetics Corp.) containing 4% fetal bovine serum (FBS) and placed on the Matrigel coated wells. Artery rings were covered with an additional […] of Matrigel. After polymerization the Matrigel was covered with 1 mL of EBM (4% FBS) containing various doses of Z-VVL-CHO, OM99-2, P10-P4′statV, DAPT, or L-685,458 as indicated in the figure legends (the culture medium was changed every 3 days). Pictures were taken at day 4, 5 and 6 using a 4×objective. Microvessel outgrowth area was quantified using the Image Pro Plus software. Briefly, ring cultures were photographed using a digital video camera linked to an Olympus BX60 microscope. The outgrowth area was delineated and measured with the Image Pro Plus software by using a strategy of microvessel outgrowth detection based on difference in color intensities between the outgrowths, the Matrigel and the artery ring. The artery rings were manually selected and excluded from the area of measurement and the color intensity threshold was adjusted to selectively measure the area occupied by the microvessel outgrowths. Results were expressed as a percentage of the area occupied by microvessel outgrowths at day 4 in control condition.

[5] = test system: human brain endothelial cells; test: proliferation of human brain endothelial cells (Quick cell proliferation assay kit); format: cell-based; details: various doses, 24 hours
Description: as §1

Structure (SMILES)	cellular toxicity / viability of human brain endothelial cells versus control [1]	LDH activity in the culture medium, ANOVA main effect [1]	vascularization (vascular index) of U-87 MG tumors versus vehicle [2]	growth (tumor volume) of U-87 MG xenografts versus vehicle [2]	proliferation of U-87 MG brain tumor cells [3]	tumoricidal activity [3]	area covered by microvessel outgrowths versus control ([4]; 5 μM)	area covered by microvessel outgrowths versus control ([4]; 10 μM)	area covered by microvessel outgrowths versus control ([4]; 20 μM)	proliferation of human brain endothelial cells, dose dependence [5]	sprouting of microvessel outgrowths, overall / dose dependence [4]	sprouting of microvessel outgrowths, overall / dose dependence ([4]; listed as Z-VVL-CHO)
C[C@H](NC(=O)Cc1cc(F)cc(F)c1)C(=O)N[C@H](C(=O)OC(C)(C)C)c1ccccc1 [DAPT, N-[N-(3,5-difluorophenacetyl-L-alanyl)]-S-phenylglycine t-butyl ester]	without inducing cellular toxicity	significant main effect	decreased vascularization; also recorded: significantly reduce the vascularization	completely inhibited the growth; also recorded: inhibit the growth	dose dependently inhibited the proliferation	did not display tumoricidal activity	appeared to stimulate	no significant difference	inhibit	dose dependently inhibited	–	–
CC(C)C[C@@H](C=O)NC(=O)[C@H](CC(C)C)NC(=O)[C@@H](NC(=O)OCc1ccccc1)C(C)C [Z-VLL-CHO, N-benzyloxycarbony-val-leu-leucinal] (Cbz-Val-Leu-Leu-aldehyde)	without affecting their viability	significant main effect	decreased vascularization; also recorded: significantly reduce the vascularization	completely inhibited the growth; also recorded: inhibit the growth	dose dependently inhibited the proliferation	did not display tumoricidal activity	–	–	–	dose dependently inhibited	profoundly anti-angiogenic; also recorded: dose dependently and potently inhibited	dose-dependently inhibits

— US20040229816A1, “Anti-angiogenic and anti-tumoral properties of beta and gamma secretase inhibitors” (priority 2003, published 2004)
